The supplement of paper PMC8617591

Key:
[1] = tested on: Mycobacterium tuberculosis Erdman (autoluminescent); test: total FIC90 (Loewe) at 90% inhibition, three-drug combination (log2); higher = more antagonistic
Procedure: (§1)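 DiaMOND equipotent three-drug combination dose responses (10 doses, 1.5- or 2-fold spacing, centred on IC90) against autoluminescent M. tuberculosis Erdman in 8 in vitro models. Read-out is OD600, or luminescence for the intracellular and dormancy models, normalised to untreated wells. Hill-fit Einf, AUC25 and GRinf are potency metrics; FIC50 and FIC90 are total Loewe fractional inhibitory concentrations as log2 (negative = synergy).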

[2] = tested on: Mycobacterium tuberculosis Erdman (autoluminescent); test: AUC25, normalised area under dose response up to IC25 (three-drug combination) (fraction (0-1)); higher = more potent at low dose
Procedure: as §1

[3] = tested on: Mycobacterium tuberculosis Erdman (autoluminescent); test: total FIC50 (Loewe) at 50% inhibition, three-drug combination (log2); higher = more antagonistic
Procedure: as §1

[4] = tested on: Mycobacterium tuberculosis Erdman (autoluminescent); test: Einf, fitted maximum growth inhibition of three-drug combination (fraction); higher = stronger maximal inhibition
Procedure: as §1

[5] = tested on: Mycobacterium tuberculosis Erdman (autoluminescent); test: GRinf, maximum normalised growth rate inhibition (three-drug combination) (unitless (-1 to 1)); higher = less effect (negative = killing)
Procedure: as §1

COc1nc2ccc(Br)cc2cc1[C@@H](c1ccccc1)[C@@](O)(CCN(C)C)c1cccc2ccccc12 [bedaquiline] + COc1c(N2C[C@@H]3CCCN[C@@H]3C2)c(F)cc2c(=O)c(C(=O)O)cn(C3CC3)c12 [moxifloxacin] + O=[N+]([O-])c1cn2c(n1)OC[C@@H](OCc1ccc(OC(F)(F)F)cc1)C2 [pretomanid]
Conditions | AUC25, [2] | Einf, [4] | GRinf, [5] | total FIC50, [3] | total FIC90, [1]
in vitro model: acidic pH 5.7, time point: constant (~7 days, model-specific) | 0.1 | 0.838 | -0.377 | 0.596 | –
in vitro model: acidic pH 5.7, time point: terminal (~4-5 doublings, model-specific) | 0.0692 | 0.971 | -0.329 | 0.946 | 0.743
in vitro model: intracellular J774, time point: constant = terminal | – | 0.972 | -0.42 | – | 0.518

Conditions | AUC25, [2] | Einf, [4] | GRinf, [5] | total FIC50, [3] | total FIC90, [1]
in vitro model: butyrate, time point: constant (~7 days, model-specific) | 0.11 | 0.974 | -0.202 | 0.96 | 1.4
in vitro model: butyrate, time point: terminal (~4-5 doublings, model-specific) | 0.0807 | 0.979 | -0.386 | 1.02 | 1.52
in vitro model: cholesterol 0.05 mM, time point: constant (~7 days, model-specific) | 0.102 | 0.689 | -0.187 | 0.771 | –
in vitro model: cholesterol 0.05 mM, time point: terminal (~4-5 doublings, model-specific) | 0.0953 | 0.946 | -0.21 | 0.672 | 0.565
in vitro model: cholesterol-high 0.2 mM, time point: constant (~7 days, model-specific) | 0.0866 | 0.945 | -0.309 | 0.743 | 1.24
in vitro model: cholesterol-high 0.2 mM, time point: terminal (~4-5 doublings, model-specific) | 0.082 | 1 | -0.571 | 0.598 | 0.93
in vitro model: dormancy (butyrate + nitrate, low O2), time point: constant (~7 days, model-specific) | 0.0412 | 0.905 | 0.272 | 0.0257 | -0.733
in vitro model: dormancy (butyrate + nitrate, low O2), time point: terminal (~4-5 doublings, model-specific) | 0.0577 | 0.995 | -0.1 | 0.157 | 0.118
in vitro model: standard 7H9 glycerol, time point: constant = terminal | 0.08 | 0.98 | -0.122 | -0.0856 | -0.137
in vitro model: valerate, time point: constant (~7 days, model-specific) | 0.123 | 0.932 | -0.393 | 0.261 | –
in vitro model: valerate, time point: terminal (~4-5 doublings, model-specific) | 0.0843 | 0.956 | -0.165 | 0.431 | 0.866

COc1nc2ccc(Br)cc2cc1[C@@H](c1ccccc1)[C@@](O)(CCN(C)C)c1cccc2ccccc12 [bedaquiline] + NC(=O)c1cnccn1 [pyrazinamide] + CO[C@H]1/C=C/O[C@@]2(C)Oc3c(C)c(O)c4c(O)c(c(/C=N/N5CCN(C6CCCC6)CC5)c(O)c4c3C2=O)NC(=O)/C(C)=C\C=C\[C@H](C)[C@H](O)[C@@H](C)[C@@H](O)[C@@H](C)[C@H](OC(C)=O)[C@@H]1C [rifapentine]
Conditions | AUC25, [2] | Einf, [4] | GRinf, [5] | total FIC50, [3] | total FIC90, [1]
in vitro model: acidic pH 5.7, time point: constant (~7 days, model-specific) | 0.105 | 0.951 | -0.444 | 0.212 | –
in vitro model: acidic pH 5.7, time point: terminal (~4-5 doublings, model-specific) | 0.0905 | 0.987 | -0.331 | 0.0918 | 0.167
in vitro model: intracellular J774, time point: constant = terminal | – | 0.984 | -0.419 | – | 0.111

Conditions | AUC25, [2] | Einf, [4] | GRinf, [5] | total FIC50, [3] | total FIC90, [1]
in vitro model: butyrate, time point: constant (~7 days, model-specific) | 0.109 | 0.973 | -0.292 | 0.368 | 0.452
in vitro model: butyrate, time point: terminal (~4-5 doublings, model-specific) | 0.0948 | 0.995 | -0.264 | 0.608 | 0.896
in vitro model: cholesterol 0.05 mM, time point: constant (~7 days, model-specific) | 0.113 | 0.75 | -0.416 | – | –
in vitro model: cholesterol 0.05 mM, time point: terminal (~4-5 doublings, model-specific) | 0.0882 | 0.854 | -0.194 | 0.907 | –
in vitro model: cholesterol-high 0.2 mM, time point: constant (~7 days, model-specific) | 0.0619 | 0.959 | -0.405 | 0.688 | –
in vitro model: cholesterol-high 0.2 mM, time point: terminal (~4-5 doublings, model-specific) | 0.0597 | 1 | -0.644 | 1.1 | 0.6
in vitro model: dormancy (butyrate + nitrate, low O2), time point: constant (~7 days, model-specific) | 0.0664 | 0.907 | 0.181 | -0.395 | -0.492
in vitro model: dormancy (butyrate + nitrate, low O2), time point: terminal (~4-5 doublings, model-specific) | 0.0515 | 0.988 | -0.135 | 0.0969 | -0.227
in vitro model: standard 7H9 glycerol, time point: constant = terminal | 0.0752 | 0.917 | 0.0581 | -0.269 | –
in vitro model: valerate, time point: constant (~7 days, model-specific) | 0.0676 | 0.855 | -0.194 | 0.992 | –
in vitro model: valerate, time point: terminal (~4-5 doublings, model-specific) | 0.0334 | 0.939 | -0.182 | 0.965 | 0.779

COc1nc2ccc(Br)cc2cc1[C@@H](c1ccccc1)[C@@](O)(CCN(C)C)c1cccc2ccccc12 [bedaquiline] + NC(=O)c1cnccn1 [pyrazinamide] + CO[C@H]1/C=C/O[C@@]2(C)Oc3c(C)c(O)c4c(O)c(c(/C=N/N5CCN(C)CC5)c(O)c4c3C2=O)NC(=O)/C(C)=C\C=C\[C@H](C)[C@H](O)[C@@H](C)[C@@H](O)[C@@H](C)[C@H](OC(C)=O)[C@@H]1C [rifampicin]
Conditions | AUC25, [2] | Einf, [4] | GRinf, [5] | total FIC50, [3] | total FIC90, [1]
in vitro model: acidic pH 5.7, time point: constant (~7 days, model-specific) | 0.0834 | 0.901 | -0.315 | 0.337 | –
in vitro model: acidic pH 5.7, time point: terminal (~4-5 doublings, model-specific) | 0.0711 | 0.981 | -0.241 | 0.285 | -0.207
in vitro model: intracellular J774, time point: constant = terminal | – | 0.999 | -0.44 | – | 0.24

Conditions | AUC25, [2] | Einf, [4] | GRinf, [5] | total FIC50, [3] | total FIC90, [1]
in vitro model: butyrate, time point: constant (~7 days, model-specific) | 0.118 | 0.967 | -0.45 | 0.454 | 0.281
in vitro model: butyrate, time point: terminal (~4-5 doublings, model-specific) | 0.11 | 0.993 | -0.729 | 0.529 | 0.948
in vitro model: cholesterol 0.05 mM, time point: constant (~7 days, model-specific) | 0.102 | 0.776 | -0.214 | – | –
in vitro model: cholesterol 0.05 mM, time point: terminal (~4-5 doublings, model-specific) | 0.0832 | 0.929 | -0.267 | 1.1 | –
in vitro model: cholesterol-high 0.2 mM, time point: constant (~7 days, model-specific) | 0.0476 | 0.933 | -0.352 | 0.834 | –
in vitro model: cholesterol-high 0.2 mM, time point: terminal (~4-5 doublings, model-specific) | 0.0598 | 1 | -0.624 | 1.34 | 0.74
in vitro model: dormancy (butyrate + nitrate, low O2), time point: constant (~7 days, model-specific) | 0.0673 | 0.914 | 0.179 | -0.454 | -0.722
in vitro model: dormancy (butyrate + nitrate, low O2), time point: terminal (~4-5 doublings, model-specific) | 0.0465 | 0.984 | -0.139 | -0.149 | -0.476
in vitro model: standard 7H9 glycerol, time point: constant = terminal | 0.0766 | 0.913 | 0.0332 | 0.401 | –
in vitro model: valerate, time point: constant (~7 days, model-specific) | 0.0558 | 0.839 | 0.0298 | 0.905 | –
in vitro model: valerate, time point: terminal (~4-5 doublings, model-specific) | 0.032 | 0.935 | 0.00447 | 0.857 | 0.584
